Literature values as cited in US20040121305A1, “Generation of efficacy, toxicity and disease signatures and methods of use thereof” (priority 2002, published 2004).

Conditions: known toxins to be used for toxicity signature generation; organs known to be targeted
For `Clc1cc(Cl)c(-c2cc(Cl)c(Cl)cc2Cl)cc1Cl` [2,2′,4,4′,5,5′-hexachlorobiphenyl], the Target organ/organ system is listed as “liver”. In the case of `Clc1cc2c(cc1Cl)Oc1cc(Cl)c(Cl)cc1O2` [2,3,7,8-tetrachlorodibenzo-p-dioxin], the Target organ/organ system is given as “liver”. For `NCCBr` [2-bromoethylamine (BEA), 2-bromoethylamine], the Target organ/organ system is given as “kidney”. For `Cc1ccc2cc3c(ccc4ccccc43)c3c2c1CC3` [3-methylcholanthrene], the Target organ/organ system is listed as “liver”. In the case of `Nc1ccc(O)cc1` [4-aminophenol (PAP), 4-aminophenol], the Target organ/organ system is given as “kidney”. For `Cc1cccc(Nc2cc(Cl)nc(SCC(=O)O)n2)c1C` [Wy-16,463], the Target organ/organ system is given as “liver”. For `CC(=O)Nc1ccc(O)cc1` [acetaminophen], the Target organ/organ system is listed as “kidney”. In the case of `C=CCO` [allyl alcohol], the Target organ/organ system is listed as “liver”. For `C[C@@H]1[C@H](O)[C@@H](C)/C=C/C=C/C=C/C=C/C=C/C=C/C=C/[C@H](O[C@@H]2O[C@H](C)[C@@H](O)[C@H](N)[C@@H]2O)C[C@@H]2O[C@](O)(C[C@@H](O)C[C@@H](O)[C@H](O)CC[C@@H](O)C[C@@H](O)CC(=O)O[C@H]1C)C[C@H](O)[C@H]2C(=O)O` [amphotericin B], the Target organ/organ system is listed as “blood; cardiovascular system; kidney; liver”. For `[AsH3]` [arsenic], the Target organ/organ system is given as “liver”. For `CC(=O)Oc1ccccc1C(=O)O` [aspirin], the Target organ/organ system is listed as “cardiovascular system; kidney”. For `COc1ccc(CCN2CCC(Nc3nc4ccccc4n3Cc3ccc(F)cc3)CC2)cc1` [astemizole], the Target organ/organ system is given as “cardiovascular system”. In the case of `c1ccccc1` [benzene], the Target organ/organ system is given as “blood”. In the case of `[Cd]` [cadmium], the Target organ/organ system is given as “kidney; liver; nervous system; respiratory system”. In the case of `NC(=O)N1c2ccccc2C=Cc2ccccc21` [carbamezipine], the Target organ/organ system is listed as “blood; liver; reproductive system”. For `CC(C)(Oc1ccc(C2CC2(Cl)Cl)cc1)C(=O)O` (stereo not drawn) [ciprofibrate (cipro), ciprofibrate], the Target organ/organ system is given as “liver”. For `CCOC(=O)C(C)(C)Oc1ccc(Cl)cc1` [clofibrate], the Target organ/organ system is listed as “muscle”. In the case of `[Cl][Co][Cl]` [cobalt chloride], the Target organ/organ system is listed as “liver”. For `CCN(CC)N=O` [diethylntrosamine], the Target organ/organ system is listed as “liver”. In the case of `CNNC` [dimethylhydrazine (DMH), dimethylhydrazine], the Target organ/organ system is listed as “liver”. For `Cc1ccc(C)c(OCCCC(C)(C)C(=O)O)c1` [gamfibrozil], the Target organ/organ system is given as “muscle”. In the case of `Nc1nc(O)c2ncn(COC(CO)CO)c2n1` [ganciclovir], the Target organ/organ system is given as “blood; liver”. For `ClC(Cl)=C(Cl)C(Cl)=C(Cl)Cl` [hexachloro-1,3-butediene (HCBD), hexachloro-1,3-butediene], the Target organ/organ system is given as “kidney”. In the case of `NN` [hydrazine], the Target organ/organ system is given as “liver”. In the case of `CC(=O)[O-].CC(=O)[O-].[Pb+2]` [lead acetate (PbAc), lead acetate], the Target organ/organ system is listed as “liver, kidney”. For `[Cl][Hg][Cl]` [mercury(II) chloride (HgCl2), mercury(II) chloride], the Target organ/organ system is given as “kidney”. For `CN(C)CCN(Cc1cccs1)c1ccccn1` [methapyrilene], the Target organ/organ system is given as “liver”. For `CN(Cc1cnc2nc(N)nc(N)c2n1)c1ccc(C(=O)N[C@@H](CCC(=O)O)C(=O)O)cc1` [methotrexate], the Target organ/organ system is listed as “liver”. For `[N]=O` [nitric oxide], the Target organ/organ system is given as “respiratory system; cardiovascular”. For `Cc1nccn1CC1CCc2c(c3ccccc3n2C)C1=O` (stereo not drawn) [ondansetron], the Target organ/organ system is given as “liver”. For `NNc1ccccc1` [phenylhydrazine (phenylhyrzn), phenylhydrazine], the Target organ/organ system is given as “liver”. For `CC[C@H](C)C(=O)O[C@H]1C[C@H](O)C=C2C=C[C@H](C)[C@H](CC[C@@H](O)C[C@@H](O)CC(=O)O)[C@H]21` [pravastatin], the Target organ/organ system is listed as “cardiovascular system; liver”. For `COc1cc(N)c(Cl)cc1C(=O)NC1CCN(CCCOc2ccc(F)cc2)CC1OC` (stereo not drawn) [propulsid], the Target organ/organ system is given as “cardiovascular system”. For `CN(C)c1ncnc2c1ncn2[C@@H]1O[C@H](CO)[C@@H](N)[C@H]1O` [puromycin aminonucleoside (PAN), puromycin aminonucleoside], the Target organ/organ system is given as “liver; kidney”. For `[F-].[Na+]` [sodium fluoride (NaF), sodium fluoride], the Target organ/organ system is given as “liver”. In the case of `CC(=N)S` [thioacetamide], the Target organ/organ system is listed as “liver; kidney”. For `Cc1cccc(C)c1NC(=O)C(C)N` (stereo not drawn) [tocainidine], the Target organ/organ system is listed as “cardiovascular system”. In the case of `Cc1c(C)c2c(c(C)c1O)CCC(C)(COc1ccc(CC3SC(=O)NC3=O)cc1)O2` (stereo not drawn) [troglitazone], the Target organ/organ system is given as “liver”. In the case of `CCCC(CCC)C(=O)O` [valproic acid], the Target organ/organ system is listed as “reproductive system”. For `CC[C@]1(O)C[C@H]2CN(CCc3c([nH]c4ccccc34)[C@@](C(=O)OC)(c3cc4c(cc3OC)N(C=O)[C@H]3[C@@](O)(C(=O)OC)[C@H](OC(C)=O)[C@]5(CC)C=CCN6CC[C@]43[C@@H]65)C2)C1` [vincristine], the Target organ/organ system is given as “nervous system; cardiovascular system; reproductive”. For `Cc1cn([C@H]2C[C@H](N=[N+]=[N-])[C@@H](CO)O2)c(=O)[nH]c1=O` [zidovudine (AZT), zidovudine], the Target organ/organ system is given as “blood; liver”. For `S=C=Nc1cccc2ccccc12` [α-naphthyl isothiocyanate (ANIT), α-naphthyl isothiocyanate], the Target organ/organ system is listed as “liver”. In the case of `O=c1cc(-c2ccccc2)oc2ccc3ccccc3c12` [β-naphthoflavone (BNF), β-naphthoflavone], the Target organ/organ system is given as “liver”. In the case of corvastatin, the Target organ/organ system is listed as “cardiovascular system; liver”. In the case of “interleukin-6 (IL-6): interleukin-6, listed as a known toxin targeting the liver”, the Target organ/organ system is given as “liver”.
